Data from patent US11236055B2 (Venenum Biodesign, LLC, priority 2016, dated 2022).

Assays:
[1] = target: T1, mouse TGR5 receptor (Mus musculus, UniProt Q80SS6); test: Mouse TGR5 cAMP production assay (HTRF, Cisbio cAMP HiRange); assay type: cell-based; conditions: HEK293-EBNA cells overexpressing mouse TGR5, HTRF cAMP HiRange; coded A-D
T1 construct: expressed in transfected cells; host or cells: HEK293-EBNA (293 c18, ATCC CRL10852), Hygromycin B selection
T1 sequence (Q80SS6 1-329): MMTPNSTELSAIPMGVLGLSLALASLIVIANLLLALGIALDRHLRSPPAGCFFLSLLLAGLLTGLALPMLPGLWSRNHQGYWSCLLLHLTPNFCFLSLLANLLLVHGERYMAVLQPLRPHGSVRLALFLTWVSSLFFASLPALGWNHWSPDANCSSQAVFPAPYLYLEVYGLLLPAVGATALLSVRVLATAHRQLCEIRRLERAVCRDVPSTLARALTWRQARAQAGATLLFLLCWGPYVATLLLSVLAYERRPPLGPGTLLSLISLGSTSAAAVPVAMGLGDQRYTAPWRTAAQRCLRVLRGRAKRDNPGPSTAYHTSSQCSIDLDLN
Outline: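 cAMP read by HTRF competition after 1 h room-temperature compound exposure of mouse TGR5-overexpressing HEK293-EBNA cells. Cells were suspended in serum-free DMEM containing 500 μM IBMX; compounds ran as 12-point half-log dilutions in duplicate; EC50 derived.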

[2] = target: T2, human TGR5 receptor (Homo sapiens, UniProt Q8TDU6); test: Human TGR5 cAMP production assay; assay type: cell-based; conditions: human TGR5, luminescent cAMP assay; coded A-D; read-out: Human TGR5 Lum. cAMP Activity (EC50)
T2 construct: host or cells: CHO-K1 (hTGR5-CHO cells)
T2 sequence (Q8TDU6 1-330): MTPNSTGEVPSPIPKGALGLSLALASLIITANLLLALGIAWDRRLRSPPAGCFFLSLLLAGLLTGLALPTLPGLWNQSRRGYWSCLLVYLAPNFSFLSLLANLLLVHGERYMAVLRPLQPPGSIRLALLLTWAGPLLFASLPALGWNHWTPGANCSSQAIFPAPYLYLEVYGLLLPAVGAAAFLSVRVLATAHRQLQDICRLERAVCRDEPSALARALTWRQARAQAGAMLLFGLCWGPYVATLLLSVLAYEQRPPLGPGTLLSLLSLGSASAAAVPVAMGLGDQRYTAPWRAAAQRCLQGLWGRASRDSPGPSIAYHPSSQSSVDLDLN
Outline: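 CHO-K1 cells stably expressing human TGR5, with IBMX and cAMP antibody, were exposed to half-log serially diluted compound for 1 h at room temperature. cAMP measured by enzyme-fragment complementation luminescence (XS+ kit) after overnight incubation; EC50 values reported.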

[3] = test system: Mouse STC-1 cells; test: STC-1 GLP-1 assay; assay type: cell-based; conditions: GLP-1 secretion, 2 h, coded A-C, read-out: Mouse STC-1 HTRF GLP-1 Activity (EC50)
Protocol: We evaluated Compounds of the present invention for their ability to induce GLP-1 production in mouse intestinal neuroendocrine tumor cells. Mouse STC-1 cells were cultured and maintained in high glucose DMEM (Sigma #5796) supplemented with 15% horse serum, 5% Fetal Bovine Serum (FBS), 1% penicillin/streptomycin, and 2 mM L-alanine L-glutamine (GlutaMax). Two days prior to analysis of GLP-1 secretion cells were harvested using Accutase (Sigma), spun down then resuspended in high glucose DMEM media containing 2 mM L-alanine L-glutamine (GlutaMax), 10% charcoal-dextran stripped FBS, and 50 μg/mL Gentamicin, at a density of 100,000 cells/mL. 100 μL of cell suspension was added to each well of a 96-well Poly-D-Lysine coated culture plate (Sigma; cat #2382493) and was incubated at 37° C. with 5% CO2.
Compounds were initially diluted in 100% DMSO (12-point serial dilution by half logs) in a 96-well plate and then were further diluted 1:500 in Hanks' Balanced Salt Solution (HBSS) containing protease inhibitor cocktail, DPP-IV inhibitor, and 0.1% fatty acid free bovine serum albumin. On the day of the experiment cells were washed once with HBSS. After wash, 100 μL of test compound was added to each well. The plate was incubated at 37° C. with 5% CO2 for 2 h. Supernatants were collected and GLP-1 secretion was measured using the Cisbio™ Active GLP-1 HTRF Assay Kit (Cisbio). Briefly, Anti-GLP-1-d2 conjugate and Anti-GLP-1 Terbium Cryptate conjugate stock solutions were prepared as per kit instructions. The two solutions were pre-mixed and 10 μL were transferred to a 384-well low volume plate (Greiner; cat #784075). 10 μL of collected supernatants were added to wells already containing the conjugate solution. The plate was covered and incubated at room temperature overnight. The plate was read on an Envision™ plate reader (Perkin Elmer).
In Table 34, EC50 values obtained from the STC-1 GLP-1 production assay for compounds of the present invention are summarized.

[4] = target: T1, mouse TGR5 receptor; test: Mouse TGR5 cAMP production assay (luminescent, DiscoveRx cAMP XS+); assay type: cell-based; conditions: HEK293-EBNA cells overexpressing mouse TGR5, luminescent cAMP XS+; coded A-D; read-out: Mouse TGR5 Lum. cAMP Activity (EC50)
Outline: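 HEK293-EBNA cells stably expressing mouse TGR5 were suspended in serum-free DMEM with 500 μM IBMX and preincubated 20 min with cAMP antibody. They were then exposed to half-log compound dilutions for 1 h at room temperature. cAMP measured by enzyme-fragment complementation luminescence after overnight incubation; EC50 derived.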

[5] = Absorption vs. first pass metabolism: Cmax with and without 1-aminobenzotriazole (ABT) pre-treatment; assay type: in vivo, mouse; conditions: ICR mice, ABT 150 mg/kg p.o. 2 h before; compound 10 mg/kg p.o.
Protocol: Absorption Vs. First Pass Metabolism
In this study, the absorption was examined as compared to first pass metabolism of the compounds of the present invention. ICR mice (Hilltop) were pre-treated with 1-aminobenzotriazole (ABT), a nonselective inhibitor of cytochrome P450 enzymes to inhibit Cyp450-mediated degradation of the compounds in liver.
ABT was administered at 150 mg/kg in 5 mL/kg of 0.04% ethanol in 0.5% methyl cellulose (w/v) by oral gavage, 2 hours prior to test compound administration. The compounds 20AA and 20AC were administered by oral gavage at 10 mg/kg in 10 mL/kg of 20% PEG400/80% (0.5% (w/v) CMC containing 0.25% (v/v) Tween 80) (v/v), 2 hours after the ABT treatment. Blood was collected via orbital bleeding at predose, 0.25, 0.5, 1, 2, and 4 hours post-dose and the quantification of compound levels in plasma was accomplished by means of LC-MS/MS analysis as described in Example 59. Reference compound “Propranolol” that is known to be metabolized by Cyp450 was used as a positive control.
FIG. 4 depicts the Cmax (nM) of the compounds of the present invention with and without ABT pre-treatment.

Cc1cnccc1-c1cccc(C(NS(=O)(=O)c2ccccc2C(F)(F)F)C2CC2)c1 (racemic) [Compound 5AV, (+/−)N-(cyclopropyl(3-(3-methylpyridin-4-yl)phenyl)-methyl)-2-(trifluoromethyl)benzenesulfonamide] gave an EC50 [1] of 100 to 999 nM, an EC50 [2] of less than 100 nM and an EC50 [3] of 1000 to 30000 nM.

Compound COc1cnccc1-c1cccc(C(C)(C)NS(=O)(=O)c2ccccc2[N+](=O)[O-])c1 [Compound 2AU] has an EC50 [4] of less than 100 nM, an EC50 [2] of less than 100 nM and an EC50 [3] of 1000 to 30000 nM.

COc1cnccc1-c1cccc(C(C)(C)NS(=O)(=O)c2ccccc2C(F)(F)F)c1 [Compound 2AV] showed an EC50 [4] of 100 to 999 nM, an EC50 [2] of less than 100 nM and an EC50 [3] of 1000 to 30000 nM.

With COc1cnccc1-c1cccc(C(C)(C)NS(=O)(=O)c2cccc(Cl)c2Cl)c1 [Compound 2BC] the EC50 [1] was less than 100 nM, the EC50 [2] was less than 100 nM and the EC50 [3] was 1000 to 30000 nM.

Compound COc1cnccc1-c1cccc(C(C)(C)NS(=O)(=O)c2cccc(Cl)c2C)c1 [Compound 2BL] has an EC50 [1] of less than 100 nM, an EC50 [2] of less than 100 nM and an EC50 [3] of 100 to 999 nM.

COc1cnccc1-c1cccc([C@H](C)NS(=O)(=O)c2ccccc2C(F)(F)F)c1 [Compound 2BQ] showed an EC50 [4] of 100 to 999 nM, an EC50 [2] of less than 100 nM and an EC50 [3] of 1000 to 30000 nM.

With CC[C@H](NS(=O)(=O)c1ccccc1C(F)(F)F)c1cccc(-c2ccncc2C)c1 [Compound 5AW, (S)-N-(1-(3-(3-methylpyridin-4-yl)phenyl)propyl)-2-(trifluoromethyl)benzenesulfonamide] the EC50 [1] was less than 100 nM, the EC50 [2] was less than 100 nM and the EC50 [3] was 1000 to 30000 nM.

CCOc1cnccc1-c1cccc(C(C)(C)NS(=O)(=O)c2ccccc2C(F)(F)F)c1 [Compound 8AC, N-(2-(3-(3-ethoxypyridin-4-yl)phenyl)propan-2-yl)-2-(trifluoromethyl)benzenesulfonamide] showed an EC50 [4] of 100 to 999 nM, an EC50 [2] of less than 100 nM and an EC50 [3] of 100 to 999 nM.

Compound COC(=O)CN(C(C)(C)c1cccc(-c2ccncc2C)c1)S(=O)(=O)c1ccccc1C(F)(F)F [Compound 13, Methyl 2-(N-(2-(3-(3-methylpyridin-4-yl)phenyl)propan-2-yl)-2-(trifluoromethyl)phenylsulfonamido)acetate] has an EC50 [1] of 100 to 999 nM, an EC50 [2] of less than 100 nM and an EC50 [3] of 1000 to 30000 nM.

In the case of COCCN(C(C)(C)c1cccc(-c2ccncc2C)c1)S(=O)(=O)c1ccccc1C(F)(F)F [Compound 13AA, N-(2-methoxyethyl)-N-(2-(3-(3-methylpyridin-4-yl)phenyl)propan-2-yl)-2-(trifluoromethyl)benzenesulfonamide], the EC50 [1] is reported as 100 to 999 nM, the EC50 [2] is reported as less than 100 nM and the EC50 [3] is reported as 100 to 999 nM.

For CCOC(=O)CCCN(C(C)(C)c1cccc(-c2ccncc2C)c1)S(=O)(=O)c1ccccc1C(F)(F)F [Compound 14A, Ethyl 4-(N-(2-(3-(3-methylpyridin-4-yl)phenyl)propan-2-yl)-2-(trifluoromethyl)phenylsulfonamido)butanoate], the EC50 [1] was 100 to 999 nM, the EC50 [2] was less than 100 nM and the EC50 [3] was 100 to 999 nM.

CCOC(=O)C[C@H](NS(=O)(=O)c1ccccc1C(F)(F)F)c1cccc(-c2ccncc2C)c1 [Compound 18A, (S)-ethyl 3-(3-(3-methylpyridin-4-yl)phenyl)-3-(2-(trifluoromethyl)phenylsulfonamido)-propanoate] gave an EC50 [1] of less than 100 nM, an EC50 [2] of less than 100 nM and an EC50 [3] of 1000 to 30000 nM.

Cc1cnccc1-c1cccc(C2CN(CCCC(=O)NCS(=O)(=O)O)CCN2S(=O)(=O)c2cccc(Cl)c2C)c1 (stereo not shown) [Compound 53, (4-(4-((3-Chloro-2-methylphenyl)sulfonyl)-3-(3-(3-methylpyridin-4-yl)phenyl)piperazin-1-yl)butanamido)methanesulfonic acid] gave an EC50 [1] of less than 100 nM, an EC50 [2] of 100 to 999 nM and an EC50 [3] of 100 to 999 nM.

In the case of CC(C)NCC(O)COc1cccc2ccccc12 (stereo not shown) [propranolol, Propranolol, reference compound], the “Cmax with versus without ABT pre-treatment” value [5] is reported as “significantly higher”.
